Residues, ends and D or L forms follow the SMILES beside them. *: point of attachment. Cbz = O=C(OCc1ccccc1)*
Tests used:
BIN2-HA protein = experiment: BL treatment assay, BIN2-HA protein amount by IP/Western analysis; format: in vivo, Arabidopsis thaliana
Description: Seedlings from 1-week-old plants were harvested and ground to powder in N2 and mixed with the extraction buffer containing 50 mM Tris-Cl (pH 7.5), 100 mM NaCl, 10 mM MgCl2, 1 mM EDTA, 10% glycerol 0.1% NP-40, 1 mM phenymethylsulfonyl fluoride (PMSF), and 1× protease inhibitor cocktail (GenDEPOT) 20 min at 4° C.
The IP experiments were performed using HA Tag IP/Co-IP Kit according to the manufacturer's protocol (Thermo Pierce).
The supernatant was incubated with prewashed anti-HA agarose beads for 4 h at 4° C. with gentle shaking. The beads were collected and washed three times with TBS plus 0.05% Tween-20 detergent (TBST), and dissolved in 2×SDS sample buffer. The proteins were separated by 10% SDS-PAGE, and Anti-HA (1:2,000, AbCam #9110) antibody was used to detect BIN2-HA.
[…] The seedlings were transferred to liquid 1/2 MS medium with 1% sucrose containing various concentrations of BL (24-epibrassinolide, Sigma #E1641), and incubated for the indicated times before being removed for Western analysis.
To investigate the BL-Induced BIN2 degradation, BRZ (Sekimata et al., 2001) treated seedlings were incubated in liquid 1/2 MS medium containing 1 μM BL and/or 20 μM MG132 (Sigma), a specific 26S proteasome inhibitor (Rock et al., 1994) for 30 min.

[1] = test system: BIN2-HA transgenic seedlings; experiment: Phenotype of BIN2-HA transgenic seedlings on BRZ / BL medium; format: in vivo, Arabidopsis thaliana
Description: (§1) Arabidopsis seeds were sterilized and germinated on agar-solidified 1/2 Murashige and Skoog (MS, Duchefa #M0222) with 1% sucrose. After stratification at 4° C. for 3 days, the wild type and mutant plants were grown under a photoperiod of a long day condition (16 h light/8 h dark) at 23° C. Seeds of various transgenic lines were germinated on Murashige and Skoog medium (1/2 MS) with 2 μM BRZ (Sigma), a BR biosynthesis inhibitor, and grown under a long day condition at 23° C. for 1 week. The seedlings were transferred to liquid 1/2 MS medium with 1% sucrose containing various concentrations of BL (24-epibrassinolide, Sigma #E1641), and incubated for the indicated times before being removed for Western analysis. To confirm whether the amount of BIN2 is affected by the BRs level, we grew BIN2-HA line and a bin2-6D-HA line on medium containing 2 μM BRZ for 2 weeks and then transferred them to liquid medium with 1 μM epi-BL for 2 to 8 days.

[2] = test system: bin2-6D-HA transgenic seedlings; experiment: Phenotype of bin2-6D-HA transgenic seedlings on BL medium; format: in vivo, Arabidopsis thaliana; conditions: 1 μM BL-containing medium for 0, 2, 4 and 8 d
Description: as §1

BIN2 [3] = experiment: Immunoprecipitation combined with LC/MALDI-TOF/MS of BIN2-interacting proteins; format: binding, Arabidopsis thaliana; conditions: BL-treated transgenic seedlings, anti-HA IP
Description: Seeds of transgenic lines, BIN2-HA, bin2-6D-HA, and BIN2KD-HA, were germinated on agar-solidified 1/2 MS with 1% sucrose supplemented with 1 μM BRZ and grown under a long day condition at 23° C. for 2 week. The seedlings were transferred them to liquid medium (1/2 MS with 1% sucrose) with 1 μM BL, and incubated for 30 min. These seedlings were ground to powder in liquid nitrogen and solubilized with protein extraction buffer containing 50 mM Tris-Cl (pH 7.5), 100 mM NaCl, 10 mM MgCl2, 1 mM EDTA, 10% glycerol 0.1% NP-40, 1 mM PMSF, and 1× Protease inhibitor cocktail (GenDEPOT). The extracts were centrifuged at 20,000×g for 20 min, and the resulting supernatants were collected and incubated with pretreated anti-HA agarose bead (Thermo Pierce) at 4° C. After incubation, the agarose beads were collected by centrifugation at 800×g for 30 sec and washed three times with extraction buffer. Immunoprecipitation (IP) complex was eluted by elution buffer containing 50 mM Tris-HCl (pH 7.5), 50 mM DTT, 1 mM EDTA, 10% glycerol, 1% SDS, and 0.01% bromophenol blue, and then separated in a 10% SDS-PAGE gel, and immunoblot analysis. […] The gel lane with separated bin2-6D-HA proteins was cut into a single slices, and then in-gel tryptic digestion and peptide desalting, the extracted peptides were analyzed by MALDI-TOF mass spectrometry on an Ultraflex III TOF/TOF (Bruker Daltonics, Germany). […]

BIN2 [4] = molecular target: T1, BIN2 (Arabidopsis thaliana, UniProt Q39011); experiment: Yeast two-hybrid assay of the BIN2-BRF1 interaction; format: binding; conditions: SD/-L-T-H medium with 1.5 mM 3-AT
T1 construct: the full-length cDNA fragments of BIN2 and BRF1 were PCR amplified with specific primers; expressed in transfected cells; host or cells: yeast strain AH109
T1 sequence (Q39011 1-380): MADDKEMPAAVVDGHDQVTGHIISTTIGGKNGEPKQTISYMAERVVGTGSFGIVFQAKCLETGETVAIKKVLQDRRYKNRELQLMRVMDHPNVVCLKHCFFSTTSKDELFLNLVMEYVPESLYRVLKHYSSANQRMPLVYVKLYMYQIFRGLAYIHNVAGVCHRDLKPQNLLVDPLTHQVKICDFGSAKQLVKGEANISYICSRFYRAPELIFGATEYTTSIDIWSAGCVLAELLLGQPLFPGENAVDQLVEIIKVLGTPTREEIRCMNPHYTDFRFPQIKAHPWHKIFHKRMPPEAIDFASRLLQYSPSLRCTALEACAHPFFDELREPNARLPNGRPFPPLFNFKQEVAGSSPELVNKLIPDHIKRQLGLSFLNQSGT
Description: Yeast two-hybrid assay was conducted following the Matchmaker Gold Yeast Two-Hybrid System manufacturer's protocol (Clontech) for testing the BIN2 and BRF1 interaction.
To make the yeast two-hybrid assay constructs, the full-length cDNA fragments of BIN2 and BRF1 were PCR amplified with specific primers, BIN2-F and BIN2-R, BRF1-NdeI-F and BRF1-EcoRI-R, respectively. The PCR products BIN2 and BRF1 were ligated to the prey pGADT7 vector (AD vector) and the bait pGBKT7 vector (DBD vector), respectively. These prey and bait vectors were transformed into the yeast strain AH109, and yeast was grown on SD/-Trp/-Leu medium for 3 days. Transformants were selected on SD/Leu-/Trp- and SD/Leu-/Trp-/His-/1.5 mM 3-amino-1,2,4-triazole (3-AT, Sigma) medium. Empty vectors were used as the negative control.
Yeast two-hybrid analysis performed using primers BIN2-NdeI-F (5′-[…]-3′), BIN2-EcoRI-R (5′-[…]-3′), BRF1-NdeI-F (5′-[…]-3′), BRF1-EcoRI-R (5′-[…]-3′), (NdeI and EcoRI sites are underlined) (SEQ ID NOs: 48-51)

CC(O)(c1ccccc1)C(Cc1ccc(Cl)cc1)n1cncn1 (stereo not drawn) [BRZ]
effect of exogenous application on BIN2 protein (BIN2-HA protein; exogenous application of BRZ): increased
effect of BRZ treatment on bin2 phenotype of BIN2-HA seedling ([1]; 2 μM BRZ medium for 2 weeks): enhanced

CC(C)[C@@H](C)[C@@H](O)[C@H](O)[C@@H](C)[C@H]1CC[C@H]2[C@@H]3COC(=O)[C@H]4C[C@H](O)[C@H](O)C[C@]4(C)[C@H]3CC[C@]12C [BL, 24-epibrassinolide]
phenotypic response of dwarfed bin2-6D-HA line to BL treatment [2]: BL-insensitive
time within which BRZ-stabilized BIN2-HA protein decreased by BL treatment (BIN2-HA protein; BRZ-grown BIN2-HA seedlings transferred to BL liquid medium, Western): 10 to 30 min
phenotypic response of BIN2-HA transgenic line to BL treatment ([1]; 1 μM BL-containing medium for 0, 2, 4 and 8 d): responds

CC(C)C[C@@H](C=O)NC(=O)[C@H](CC(C)C)NC(=O)[C@H](CC(C)C)NC(=O)OCc1ccccc1 [MG132] (Cbz-Leu-Leu-Leu-aldehyde)
effect on BL-induced BIN2 disappearance (BIN2-HA protein; BIN2-HA seedlings, 1 μM BRZ 2 weeks, then 1 μM BL and/or 20 μM MG132, 30 min, IP/Western): effectively blocked

B1: BRF2: Arabidopsis F-box E3 ligase protein encoded by At5g56690, SEQ ID NO: 4 (protein, listed as Arabidopsis sp.)
chain: MAEISGLPDDLLVKILAFLPTKVAISTSVLSKQWRFLWMWLPKLKYDDYDDITDGFNSVSAFQTYRDFIAKNLPLHRAPIIESLSLGFRCGTLQPEDLKSWVEVAVSRSVRELSILAYYRNNYALSSSSLYTCKSLVTLKGFNIRVDVPPTVCLLPSLRTLELKRVRYLNEDSLRMLLSFCPVLEYLSIERHDNDNLRGLVVDVPSLRRLSLTSYTGCSSDDYVIVTPSLKYFKAFDYRSEISSYKIEKIPELEEADISIERNPEKLFVYFKSIKCLSLQVDFNSKEEPGYDSGIVFNHLEELTPYINDANWSKLLFRLLNDSPKLRVLEISNSKSFYKEKIGEYLPVSWSKNQGSVPKCFLNSLETFRVKWYYSEEQEDRDFLSLIFKHARCLKSTSILHR
identification as BIN2-interacting protein by IP combined LC/MALDI-TOF/MS (BIN2 [3]): BIN2-interacting protein

B2: BRF1: Arabidopsis F-box E3 ligase protein encoded by At5g62970, SEQ ID NO: 2 (protein, listed as Arabidopsis sp.)
chain: MDKISGFSDDELLVKILSFLPFKFAITTSVLSKQWKFLWMRVPKLEYDEDSMYSFEYSFRYFLPKAKEVDSETYSIVSESGHRMRSFIEKNLPLHSSPVIESLRLKFFTEVFQPEDIKLWVEIAVSRCAQELSVDFFPKEKHNALLPRNLYTCKSLVTLKLRNNILVDVPHVFSLPSLKILHLERVTYGDGESLQRLLSNCSVLEDLVVELDTGDNVRKLDVIIPSLLSLSFGMSRYCAYEGYRIDTPSLKYFKLTDLSKTFSGLIENMPKLEEANITARHNFKKLLELVTSVKRLSLNIENNDAEALTAIYGDDIVFNELEHLNFHIHNAYWSELLYWLLKASPKLQNLEFDEQCSRDGTMGTLAVFWNQPNSVPQCLLSTLQTFEWSGYPGSVQGKDLATYILRKSRQLKIATISIGYGLDPQQKLKMEMDVKFSFRASPTCKRVFY
identification as BIN2-interacting protein by IP combined LC/MALDI-TOF/MS (BIN2 [3]): BIN2-interacting protein
interaction with BIN2 in yeast two-hybrid assay (BIN2 [4]): specially interacted

From patent US20190135879A1, “GENE REGULATING BIN2 FUNCTION AND TRANSGENIC PLANT TRANSFORMED BY THE GENE” (SEOUL NATIONAL UNIVERSITY R&DB FOUNDATION, priority 2016, published 2019)
